The target of one series is T1, γ-secretase (Homo sapiens, UniProt P49768).
T1 construct: endogenous in cells
Put plainly: Aβ production in conditioned media by ELISA. It counts as cell-based. The note with it: 10 μM, control and PS1 cells.

For series [1] the following is noted: cited from earlier work.
The test system of a further series is Na+ channels. It counts as cell-based, human.
A further series concerns 7889O neurons. In kind it is cell-based, human.
Series [2] has as its system adult SVZ neural progenitor cells. Briefly: Primary neurosphere formation of adult SVZ progenitors. The settings on record: eight-week old mice, in the presence of EGF and FGF, 10 days in vitro, p=0.04. In kind it is cell-based. How it is done:
(§1) This supports a potential pro-neurogenic role for NDP in adult neurogenesis.
Adult FVB/N mice were killed by cervical dislocation (n=3 per preparation) and their brains removed and placed into Pipes buffer (20 mM Pipes, 25 mM glucose, 0.12M NaCl, 0.5 mM KCl [ph 7.4]). The lateral walls of the lateral ventricles were dissected, collected in Pipes buffer and incubated in a mixture containing 1.2 mL of activated papain and 8.8 ml of Pipes buffer. Papain was activated 20 min in advance by placing 3 mg of papain (Worthington Biochemical) in 1 ml of 1.1 mM EDTA, 5.5 mM cysteine HCl. The pieces of tissue were incubated in papain solution at 37° C. on a rocking platform for 10 min and collected by centrifugation at 1300 rpm for 5 min. The cellular pellet was resuspended in 1 ml of DMEM-F12 (GIBCO) containing 0.7 mg of ovomucoid inhibitor and 1 mg of DNase. The cells were dissociated and neural precursor cells were separated from differentiated cells, myelin and extracellular matrix using density gradient separation by centrifugation step with 22% Percoll. […] The cells were counted and plated in 96well-low attachment plate (Corning) (1.5×10^5/mL) in the same medium containing 10 ng/mL of EGF receptor grade (Millipore) and 10 ng/mL human bFGF (Invitrogen). […] The numbers of neurospheres were counted for six 40× fields/well after 10 days in vitro. […]

The next series concerns human iPSC-derived NPCs. Briefly: Proliferation of iPSC-derived NPCs (ki67 staining). It counts as cell-based. The note with it: d14 NPCs; data not shown.
Excerpt: as §1

Consider `C[C@H](NC(=O)Cc1cc(F)cc(F)c1)C(=O)N[C@H](C(=O)OC(C)(C)C)c1ccccc1` [DAPT], for which the Aβ production result was “sufficient to block” at γ-secretase and “blocks” on γ-secretase (listed as DapT).
Regarding `CC12CC3CC(C)(C1)CC(N)(C3)C2` [Memantine], the reported adverse events result in series [1] (in vivo) was “infrequent and mild”. The efficacy in treatment entry in series [1] (moderate to severe Alzheimer's disease) is recorded as “moderately efficacious”.
As for `NC1=N[C@H](O)[C@H]2[C@H]3O[C@]4(O)O[C@@H]([C@@H](O)[C@@]2(N1)[C@@H]4O)[C@]3(O)CO` [TTX, tetrodotoxin], in the series on Na+ channels, the action potentials result is “blocked” and the inward currents entry was “blocked”. Also, the “kinetics of remaining Ca2+ transients” value with 7889O neurons is reported as “generally slower”.
As to “recombinant norrin: recombinant Norrin protein (R&D systems), product of NDP; secreted molecule activating canonical Wnt signaling via Frizzled-4”, the “proliferation as measured by primary neurosphere formation” value in series [2] was “increased proliferation”; in series [2] (listed as recombinant Norrin protein), “induces proliferation”. Also, the “proliferation (ki67 staining)” value in the series with human iPSC-derived NPCs is given as “did not show differences in proliferation”.
On to tetraethylammonium [TEA], for which, in the series on K+ channels, the “long lasting outward current after the fast inward current” value is recorded as “cancelled”.

The record behind these values is patent US20160230227A1, “METHODS OF TREATING ALZHEIMER'S DISEASE” (THE NEW YORK STEM CELL FOUNDATION, priority 2012, published 2016).
